Consider 7 compounds from patent US5348941A, “Stabilizers for fibroblast growth factors” (Merck & Co., Inc., priority 1992, dated 1994).

In series [1] the target is T1, aFGF (Homo sapiens, UniProt P05230).
T1 construct: The recombinant derived, 140 amino add form is the preferred form of aFGF; N-terminal methionine (MetHaFGF); made in house; host or cells: microbial cells (preferred embodiment)
In words: Thermal denaturation (Tm) of aFGF by circular dichroism. The conditions noted are these: for Tm of aFGF (maximum Tm induced by ligand), circular dichroism: PBS pH 7.2, excess ligand (1-3X by weight; 120 mM sodium sulfate, 10 mM tetrapolyphosphate). It is filed as biochemical. On the procedure: Circular Dichroism (CD) spectra are measured with an AVIV 62 DS spectropolarimeter. Samples of aFGF at about 100 μg/ml in a PBS buffer (6 mM sodium phosphate, 120 mM NaCl, pH 7.2) containing various ligands are placed into 1 mm pathlength cells and the cell temperature is controlled by circulating a water/ethylene glycol mixture through the cell holder. Thermal denaturation is carded out under computer control by increasing the temperature of the water bath in 2° C. increments, followed by a two-minute equilibration period at each temperature to allow the sample to reach thermal equilibrium. Reproducibility of the midpoint of these temperature melting curves (Tm) is ±2° C.
The maximum Tm values induced by 12 different ligands as determined by circular dichroism measurements at 228 nm are summarized in the first column of Table II. All of these ligands stabilize aFGF by 15°-25° C. in a manner similar to that originally observed with heparin. […] Furthermore, sulfate unions are found near analogous residues in the crystal structure of basic FGF, Eriksson et al., Proc. Natl. Acad. Sd. USA 88:3441-3445 (1991); Zhang et al., Proc. Natl. Acad. Sci. USA 88:3446-3450 (1991). Consequently, it seemed important to examine the ability of these ligands to stabilize aFGF during thermal denaturation as monitored by both fluorescence and circular dichroism. The Tm value of aFGF increased from 27° C. to 43° C. (fluorescence)and 45° C. to 51° C. (CD) when a 100 molar excess (3X by weight) of (IrCl6)^-3 was present. Similarly, sulfate union (120 mM) produced a species that was even more dramatically stabilized, melting at 57° C. (CD).
^(a) Thermal melting temperatures were measured by circular dichroism
Samples contained […] aFGF in PBS buffer pH 7.2 with excess ligand
(1-3× by weight except for 120 mM sodium sulfate and 10 mM
For orientation: Circular dichroism is the unequal absorption of left and right circularly polarised light.

Series [2] concerns the target T1, aFGF. The experiment in a line: Copper-catalyzed oxidation of aFGF thiol groups. It is filed as biochemical. As to conditions: ligand 3X by weight; sodium sulfate 120 mM, tetrapolyphosphate 10 mM. The method, then:
Copper-catalyzed oxidation of aFGF is carried out in the following manner. Acidic FGF (about 80 μg/ml) is incubated in a 20 mM Tris, 0.15M potassium chloride, pH 8 solution containing about 20 μM cuptic chloride for varying periods of time at room temperature. The reaction was terminated by the addition of 100 mM EDTA in the same buffer. A solution of about 0.7 ml of 0.25M Tris (about pH 8) containing about 2 mM EDTA and about 7 M GuHC1 is then added followed by about 35 μl of 4 mg/ml of DTNB (Sigma). Samples were incubated for 30 minutes, filtered through a 0.22 micron filter and the optical density measured at about 412 nm to determine sulfhydryl content, Riddles et al., Meth. Enzymol. 9:49-60 (1983). Relative standard deviation of the obtained values during time course experiments is 12%.
Acidic FGF contains three free cysteine residues at positions […], 83 and 117 in the polypeptide chain. […] It has also been shown that the copper catalyzed oxidative formation of a disulfide bond in the wild-type aFGF inactivates the protein in an in vitro mitogenic assay, Ortega et al., J. Biol. Chem. 266:5842-5846 (1991). Therefore, it was of interest to determine the extent to which heparin can stabilize aFGF against inactivation by oxidation. […] Samples contained 80 μg/ml aFGF with (a) 3X heparin by weight, (b) 0.1X heparin by weight and (c) buffer alone. As heparin was introduced and its concentration increased, the rate of copper-catalyzed oxidation decreased. For example, after 20 minutes, greater than 95% of the cysteine residues of aFGF are protected from oxidation with 3X heparin. FIG. 4B illustrates the fraction of remaining reactive thiol groups after a 10-minute incubation with cupric chloride as a function of heparin concentration.
Some aggregation of aFGF occurs under the conditions of these experiments presumably due to at least partial intermolecular disulfide formation. Thus, these measurements could simply be a measurement of the loss of solubility induced by copper association with aFGF. Several experiments, however, argue against this possibility. First, previous work has shown that at dilute protein concentration, copper does indeed catalyze oxidation of thiol groups of aFGF, Ortega et al., J. Biol. Chem. 266:5842-5846 (199 1 ). Second, as a control experiment, the copper-catalyzed oxidation of aFGF was carded out in a buffer containing 6 M GuHCl. Under these denaturing conditions, nearly 100% of the thiol groups in solution were lost after 10 minutes without visible aggregation. […] Regardless of the precise mechanism, copper addition is a distinct mechanism of inactivation compared to thermal stress.
Similar protection against oxidation experiments were carried out with other negatively charged compounds with an excess of ligand (3X by weight except for sodium sulfate at 120 mM and tetrapolyphosphate at 10 mM) added to aFGF before copper catalyzed oxidation. As shown in the second column of Table 2, all of these agents at least partially protect the cysteine residues of aFGF from oxidation.
^(b) Percentage of aFGF thiols remaining in solution after 10 min
incubation with cupric chloride. Experimental conditions are described in
FIG. 10. All samples contained ligand at 3× (by weight) except
sodium sulfate (120 mM) and tetrapolyphosphate (10 mM).

Series [3] addresses T1, aFGF. The experiment in a line: Thermal denaturation (Tm) of aFGF by fluorescence spectroscopy. The conditions noted are these: PBS pH 7.2. It is filed as biochemical. The method, then: Fluorescence spectra are obtained with a Spex Fluorolog-2 spectrofiuorometer using a 1 mm pathlength cuvette. Band passes from 1-2 nm are employed with sample absorptivities maintained below 0.1 at 280 nm. The temperature is controlled either manually or automatically as described above. Reproducibility of thermal denaturation temperatures (Tm) is ± 2° C.
To more directly ascertain the effect of heparin on aFGF stability, the temperature-induced denaturation of aFGF as a function of heparin concentration was monitored by fluorescence spectroscopy. Fluorescence spectra were obtained with a Spex Fluorolog-2 spectrofiuorometer using a 1 mm pathlength cuvette. Band passes from 1-2 nm were employed with sample absorptivities maintained below 0.1 at 280 nm. The temperature was controlled either manually or automatically as described above. Reproducibility of thermal denaturation temperatures (Tm) was ±2° C. […] Experiments were carried out at 100 μg/ml protein (6.3 μM) in a PBS buffer at pH 7.2. Curve drawn through data points for clarity only.
Studies of the stabilization of aFGF by heparin are difficult to interpret because of the inherent heterogeneity of heparin preparations, Lane and Lindahl, Eds. Heparin, Chemical and Biological Properties, Clinical Applications, Edward Arnold, London (1989); Jackson, et al., Physiol. Rev. 71: 481-539 (1991). In order to better understand the polyanionic stabilization of aFGF, a series of well-defined fragments of heparin were examined for their ability to stabilize aFGF against thermal denaturation. These enzymatically prepared and purified fragments varied in size from a disaccharide to a decasaccharide. Each fragment was incubated with aFGF at a 1:1 weight ratio in a PBS buffer. The sample was then stressed by temperature and structural changes in aFGF were monitored by both circular dichroism and fluorescence spectroscopy. […] All samples contained 100 μg/ml aFGF (6.3 μM)in a PBS buffer (pH 7.2) with 100 μg/ml of each heparin fragment.
Since these fragments of heparin have a well-defined molecular weight, the molar ratio of aFGF to ligand during these thermal denaturation experiments can be calculated. The Tm of aFGF as a function of the molar concentration of the hexasaccharide was measured by fluorescence spectroscopy. Fluorescence spectra were obtained with a Spex Fluorolog-2 spectrofiuorometer using a 1mm pathlength cuvette. Band passes from 1-2 nm were employed with sample absorptivities maintained below 0.1 at 280 nm. The temperature was controlled either manually or automatically as described above. Reproducibility of thermal denaturation temperatures (Tm) was ±2° C.
Analogous to the heparin experiments illustrated in Example 1 (FIG. 3), aFGF thermal stability was monitored by fluorescence spectroscopy as a function of concentration for several other of the polyanions. […] All samples contained 100 μg/ml of aFGF (6.3 μM) in a PBS buffer at pH 7.2.

Series [4] is described as follows: Storage stability of aFGF formulations (protein mass and biological activity). The conditions noted are these: versus EDTA or EGTA. The source says: Stabilization of aFGF can be determined by several independent methods including turbidity measurements, spectroscopic techniques, maintenance of protein mass, mitogenic activity and copper catalyzed oxidation. Since acidic fibroblast growth factor is unstable at physiological temperatures (undergoing large structural changes, including aggregation, which results in a loss of mitogenic and wound healing activity), human aFGF stability can be monitored by evaluating the turbidity of the pharmaceutical composition by following the kinetics of temperature induced aggregation of unfolded protein.

For series [5], the system named is BALB/c 3T3 A31 fibroblasts. The experiment in a line: Fibroblast mitogenic assay ([3H]-thymidine incorporation into DNA). It is filed as cell-based. Details: Bioactivity (mitogenic activity of aFGF in the presence of ligand): unit not given here. As to conditions: complete absence of heparin; < = response did not plateau; * = cell death observed. On the procedure:
Biological activity of the formulation of the instant invention is determined by a modification of the fibroblast mitogenic assay as described by Linemeyer et al. in European Patent Application, Publication No. 259,953. BALB/c 3T3 A31 fibroblasts (American Type Culture Collection) are plated at about 3×10^5 cells per 32 cm^2 wells in culture media containing about 10% heat-inactivated calf serum and incubated in about 7% CO2 (pH 7.35±0.05). The cells become fully quiescent by replacing the media with serum free media at about 6, about 24 hours and about 48 hours later. At about 53 hours after plating samples of the various formulations are added and about 0.12 μg of dexamethasone are added. At about 65 hours each well is supplemented with about 0.4 μCi of [methyl-^3 H]-thymidine (20 Ci/mmole, Dupont) and 0.6 μg of unlabeled thymidine (Sigma), and at 80 hours the cells are processed for determination of radiolabel incorporation into DNA. Each dose-response point is the average of at least quadruplicate determinations. Other cell types such vascular endothelial cells and corneal endothelial cells can be employed to determine in vitro mitogenicity. The procedures are described in detail by Thomas et al., Proc. Natl. Acad. Sci. USA 82:6409-6431 (1985).
^(d) Mitogenic activity of aFGF was measured in the presence of ligan
indicated in the complete absence of heparin.
*indicates cell death observed during assay.
Biological activity of the formulation of the instant invention was determined by a modification of the fibroblast mitogenic assay as described by Linemeyer et al. in European Patent Application, Publication No. 259,953. BALB/c 3T3 A31 fibroblasts (American Type Culture Collection) were plated at 3×10^5 cells per 32 cm^2 well in culture media containing about 10% heat-inactivated calf serum and incubated in 7% CO2 (pH 7.35±0.05). The cells become fully quiescent by replacing the media with serum free media at 6, 24 hours and 48 hours later. At 53 hours after plating samples of the various formulations were added and 0.12 μg of dexamethasone was added, at 65 hours each well was supplemented with 0.4 μCi of [methyl-^3 H]-thymidine (20 Ci/mmole, Dupont) and 0.6 μg of unlabeled thymidine (Sigma), and at 80 hours the cells were processed for determination of radiolabel incorporation into DNA. Each dose-response point is the average of at least quadruplicate determinations. Other cell types such vascular endothelial cells and corneal endothelial cells can be employed to determine in vitro mitogenidty. The procedures are described in detail by Thomas et al., Proc. Natl. Acad. Sci. USA 82:6409-6431 (1985).
On the technique in general: Uptake of a labelled nucleoside into DNA is a usual measure of proliferation.

T1 sequence (P05230 16-155 limits assumed): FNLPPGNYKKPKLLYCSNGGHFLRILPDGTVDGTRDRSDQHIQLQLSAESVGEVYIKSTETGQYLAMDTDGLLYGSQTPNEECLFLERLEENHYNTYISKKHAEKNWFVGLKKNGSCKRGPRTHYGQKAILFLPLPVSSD

In the case of sulfated γ-cyclodextrin, the “Tm of aFGF (maximum Tm induced by ligand), circular dichroism” value at aFGF [1] was 70 °C. Besides, at aFGF [2], the “Cu Oxidation (% SH Lost in 10 Mins)” value came to 5%.
As to `[Cl][Ir-3]([Cl])([Cl])([Cl])([Cl])[Cl]` [(IrCl6)^-3, reference compound], the “thermal melting temperature (Tm) of aFGF, fluorescence” value on aFGF [3] (3X ligand by weight) worked out at 43 °C. Further, at aFGF [1] (3X ligand by weight), the “Tm of aFGF, circular dichroism” value worked out at 51 °C.
Regarding `N[C@@H](Cc1c[nH]cn1)C(=O)O` [histidine], the “effectiveness of chelating agent in stabilizing the aFGF-stabilizer-HEC combination” value in series [4] is “not as effective as EDTA or EGTA”.
As to `O=S(=O)(O)OC[C@H]1O[C@@](COS(=O)(=O)O)(O[C@H]2O[C@H](COS(=O)(=O)O)[C@@H](OS(=O)(=O)O)[C@H](OS(=O)(=O)O)[C@H]2OS(=O)(=O)O)[C@@H](OS(=O)(=O)O)[C@@H]1OS(=O)(=O)O` [Sucrose octasulfate, sucrose octasulfate], at aFGF [1], the “Tm of aFGF (maximum Tm induced by ligand), circular dichroism” value amounted to 65 °C. Besides, in series [5], the “Bioactivity (mitogenic activity of aFGF in the presence of ligand)” value is 2.5.
On to `O=C(O)CC(O)(CC(=O)O)C(=O)O` [citrate], for which, in series [4], the “effectiveness of chelating agent in stabilizing the aFGF-stabilizer-HEC combination” value was “not as effective as EDTA or EGTA”.
Take `O=S(=O)([O-])[O-].[Na+].[Na+]` [Sodium Sulfate, sodium sulfate]: the “Tm of aFGF (maximum Tm induced by ligand), circular dichroism” value at aFGF [1] was determined as 57 °C. The “Cu Oxidation (% SH Lost in 10 Mins)” value on aFGF [2] worked out at 25%. The “Bioactivity (mitogenic activity of aFGF in the presence of ligand)” value in series [5] was found to be 0.
For `O=C(O)C1=C[C@H](O)[C@@H](OS(=O)(=O)O)[C@H](O[C@H]2[C@H](O)[C@@H](NS(=O)(=O)O)[C@@H](O)O[C@@H]2COS(=O)(=O)O)O1` [disaccharide, Δ.orgate.Ap2S(1→4)-α-D-GlcNp2S6S], the “effect of heparin fragment on Tm of aFGF” value on aFGF [3] (1:1 weight ratio, fluorescence and circular dichroism) is recorded as “did not influence the Tm of aFGF”.
